For 1 compound, solubility in water results are on record in patent US6632630B2, “Monooxygenase assays” (Aclara Biosciences, Inc., priority 2000, dated 2003).

The nature of the data set: Solubility in water. Type of data set: physicochemical.

`O=c1ccc2nc3ccc(OCc4ccccc4)cc3oc-2c1` [7-BR, 7-benzyloxyresorufin]: the solubility in water result is reported as “very limited solubility”.
